Assays:
Format in all cases: binding
[1] = target: TEAD1 YAP50-100 (Homo sapiens, UniProt P28347); experiment: TEAD1-YAP HTRF (TR-FRET) protein-protein interaction assay; details: TEAD1, YAP peptide 50-100, HTRF; for EC50: read-out: TEAD1 YAP50-100 HTRF combined: EC50
Method: (§1) Purified His-tagged TEAD protein (YAP Binding Domain, amino acids 217-447) is pre-incubated with Europium labelled anti-His antibody tracer (Perkin Elmer Cat #AD0110). Small molecule Inhibitors are then incubated with the TEAD-Eu protein complex for 30 minutes to allow for binding to TEAD protein. Biotinylated YAP peptide for TEAD-YAP assays (AA's 50-100) or biotinylated TAZ peptide for TEAD-TAZ assays (AA's 13-57) that has been pre-incubated with streptavidin-xl665 acceptor (CIS-Bio Cat #610SAXAC) or is added to the compound-TEAD mix. The TEAD-YAP-inhibitor mixture is then incubated for 60 minutes at room temperature. All reactions are carried out in a polystyrene plate. After 60 minutes, the plate is read on a plate reader using TR-FRET mode with wavelengths of 665 nm/615 nm. If YAP or TAZ binds to TEAD as expected, a TR-FRET signal results from the proximity of YAP or TAZ and TEAD after binding. If an inhibitor such as peptide 17 (Selleckchem Cat #58164) interferes with YAP-TEAD or TAZ-TEAD binding, the disruption of the YAP or TAZ:TEAD interaction results in a decrease in TR-FRET signal. The potency of compounds as YAP:TEAD or TAZ:TEAD protein-protein interaction (PPi) inhibitors is determined by an IC50 or EC50 value generated using a non-linear four parameter curve fit.

[2] = target: TEAD2 YAP50-100 (Homo sapiens, UniProt Q15562); experiment: TEAD2-YAP HTRF (TR-FRET) protein-protein interaction assay; details: TEAD2, YAP peptide 50-100, HTRF; for EC50: read-out: TEAD2 YAP50-100 HTRF combined: EC50
Chain of TEAD2 YAP50-100 (Q15562 217-447): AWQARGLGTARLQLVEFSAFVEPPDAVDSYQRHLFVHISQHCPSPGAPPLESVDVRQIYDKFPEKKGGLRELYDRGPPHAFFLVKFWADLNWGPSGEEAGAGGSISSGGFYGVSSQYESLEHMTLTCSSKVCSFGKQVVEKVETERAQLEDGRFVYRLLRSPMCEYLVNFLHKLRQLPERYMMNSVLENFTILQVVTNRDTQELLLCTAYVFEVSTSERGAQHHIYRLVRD
Method: as §1

[3] = target: TEAD3 YAP50-100 (Homo sapiens, UniProt Q99594); experiment: TEAD3-YAP HTRF (TR-FRET) protein-protein interaction assay; details: TEAD3, YAP peptide 50-100, HTRF; for EC50: read-out: TEAD3 YAP50-100 HTRF combined: EC50
Chain of TEAD3 YAP50-100 (Q99594 173-435 limits assumed): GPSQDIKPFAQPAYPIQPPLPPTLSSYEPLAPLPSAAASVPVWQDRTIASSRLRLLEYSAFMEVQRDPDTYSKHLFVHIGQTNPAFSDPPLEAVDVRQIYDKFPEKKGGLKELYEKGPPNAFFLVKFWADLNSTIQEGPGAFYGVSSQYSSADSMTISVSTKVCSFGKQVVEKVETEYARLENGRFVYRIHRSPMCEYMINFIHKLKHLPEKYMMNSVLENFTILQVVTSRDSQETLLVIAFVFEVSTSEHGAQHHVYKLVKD
Method: as §1

[4] = target: TEAD4 YAP50-100 (Homo sapiens, UniProt Q15561); experiment: TEAD4-YAP HTRF (TR-FRET) protein-protein interaction assay; details: TEAD4, YAP peptide 50-100, HTRF; for EC50: read-out: TEAD4 YAP50-100 HTRF combined: EC50
Chain of TEAD4 YAP50-100 (Q15561 217-434 limits assumed): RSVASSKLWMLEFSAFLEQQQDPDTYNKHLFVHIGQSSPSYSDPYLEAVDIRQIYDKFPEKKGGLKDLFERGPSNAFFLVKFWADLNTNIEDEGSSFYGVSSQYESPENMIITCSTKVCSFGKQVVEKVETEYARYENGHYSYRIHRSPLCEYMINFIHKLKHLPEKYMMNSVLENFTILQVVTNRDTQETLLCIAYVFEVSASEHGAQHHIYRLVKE
Method: as §1

[5] = target: TEAD1 TAZ (amino acids 13-57) (Homo sapiens, UniProt P28347); experiment: TEAD1-TAZ HTRF (TR-FRET) protein-protein interaction assay; details: for TEAD1 TAZ HTRF combined: Max % Inhibition: TEAD1, TAZ peptide; for EC50: TEAD1-TAZ HTRF, TR-FRET 665 nm/615 nm, read-out: TEAD1 TAZ HTRF combined: EC50
Chain of TEAD1 TAZ (amino acids 13-57) (P28347 167-426 limits assumed): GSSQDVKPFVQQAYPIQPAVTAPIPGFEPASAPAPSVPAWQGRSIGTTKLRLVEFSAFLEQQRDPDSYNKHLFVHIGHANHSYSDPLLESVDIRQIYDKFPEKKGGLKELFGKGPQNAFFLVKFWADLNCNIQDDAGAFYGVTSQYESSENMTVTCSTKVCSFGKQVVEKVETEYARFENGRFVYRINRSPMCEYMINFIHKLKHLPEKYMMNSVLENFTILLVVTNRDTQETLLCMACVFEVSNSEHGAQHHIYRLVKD
Method: as §1

[6] = target: TEAD2 TAZ (amino acids 13-57) (Homo sapiens, UniProt Q15562); experiment: TEAD2-TAZ HTRF (TR-FRET) protein-protein interaction assay; details: for TEAD2 TAZ HTRF combined: Max % Inhibition: TEAD2, TAZ peptide; for EC50: TEAD2-TAZ HTRF, TR-FRET 665 nm/615 nm, read-out: TEAD2 TAZ HTRF combined: EC50
Chain of TEAD2 TAZ (amino acids 13-57) (Q15562 217-447): as the sequence (Q15562 217-447) above
Method: as §1

[7] = target: TEAD3 TAZ (amino acids 13-57) (Homo sapiens, UniProt Q99594); experiment: TEAD3-TAZ HTRF (TR-FRET) protein-protein interaction assay; details: for TEAD3 TAZ HTRF combined: Max % Inhibition: TEAD3, TAZ peptide; for EC50: TEAD3-TAZ HTRF, TR-FRET 665 nm/615 nm, read-out: TEAD3 TAZ HTRF combined: EC50
Chain of TEAD3 TAZ (amino acids 13-57) (Q99594 173-435 limits assumed): as the sequence (Q99594 173-435 limits assumed) above
Method: as §1

[8] = target: TEAD4 TAZ (amino acids 13-57) (Homo sapiens, UniProt Q15561); experiment: TEAD4-TAZ HTRF (TR-FRET) protein-protein interaction assay; details: for TEAD4 TAZ HTRF combined: Max % Inhibition: TEAD4, TAZ peptide; for EC50: TEAD4-TAZ HTRF, TR-FRET 665 nm/615 nm, read-out: TEAD4 TAZ HTRF combined: EC50
Chain of TEAD4 TAZ (amino acids 13-57) (Q15561 217-434 limits assumed): as the sequence (Q15561 217-434 limits assumed) above
Method: as §1

Chain of TEAD1 YAP50-100 (P28347 167-426 limits assumed): as the sequence (P28347 167-426 limits assumed) above

TEAD1 YAP50-100 HTRF combined: Max % Inhibition [1] [%] | EC50 [1] [nM] | TEAD2 YAP50-100 HTRF combined: Max % Inhibition [2] [%] | EC50 [2] [nM] | TEAD3 YAP50-100 HTRF combined: Max % Inhibition [3] [%] | EC50 [3] [nM] | TEAD4 YAP50-100 HTRF combined: Max % Inhibition [4] [%] | EC50 [4] [nM] | TEAD1 TAZ HTRF combined: Max % Inhibition [5] [%] | EC50 [5] [nM] | TEAD2 TAZ HTRF combined: Max % Inhibition [6] [%] | EC50 [6] [nM] | TEAD3 TAZ HTRF combined: Max % Inhibition [7] [%] | EC50 [7] [nM] | TEAD4 TAZ HTRF combined: Max % Inhibition [8] [%] | EC50 [8] [nM] | SMILES
68.0 | 40 | 68.0 | 10 | 68.0 | 80 | 52.5 | 20 | 59.0 | 60 | 62.0 | 10 | 60.0 | 90 | 48.5 | 20 | Cc1nccnc1-c1nn2c(=O)cc(-c3ccc(CC4CCCC4)cc3)[nH]c2c1C(=O)N1C[C@H](CF)[C@@H]1C (single isomer, unassigned) [Isomer B, Example 42]
70.0 | 90 | 74.4 | 10 | 75.3 | 110 | 55.3 | 330 | 61.2 | 90 | 69.2 | 10 | 63.0 | 170 | 40.3 | 600 | CN(C)C(=O)c1nn2c(=O)cc(-c3ccc(C4CCCCC4)cc3)[nH]c2c1C(=O)N1CC(CF)C1 [Compound 1, 5-(4-Cyclohexylphenyl)-3-(3-(fluoromethyl)azetidine-1-carbonyl)-N,N-dimethyl-7-oxo-4,7-dihydropyrazolo[1,5-a]pyrimidine-2-carboxamide]
72.0 | 80 | 72.0 | 20 | 69.0 | 150 | 49.0 | 670 | 64.0 | 100 | 68.0 | 20 | 58.5 | 200 | 37.5 | 570 | CC1CCN1C(=O)c1nn2c(=O)cc(-c3ccc(C4CCCCC4)cc3)[nH]c2c1C(=O)N1CC(CF)C1 (single isomer, unassigned) [Enantiomer B, Example 33, 5-(4-Cyclohexylphenyl)-3-(3-(fluoromethyl)azetidine-1-carbonyl)-2-(2-methylazetidine-1-carbonyl)pyrazolo[1,5-a]pyrimidin-7(4H)-one]
78.0 | 200 | 61.0 | 40 | 71.0 | 350 | 54.0 | 260 | 74.0 | 200 | 67.0 | 30 | 61.0 | 320 | 50.0 | 160 | O=C(c1c(-c2nccnc2C(F)(F)F)nn2c(=O)cc(-c3ccc(C4CCCCC4)cc3)[nH]c12)N1CC(CF)C1 [Compound 7, 5-(4-Cyclohexylphenyl)-3-(3-(fluoromethyl)azetidine-1-carbonyl)-2-(3-(trifluoromethyl)pyrazin-2-yl)pyrazolo[1,5-a]pyrimidin-7(4H)-one]
